How the values were obtained:
[1] = test system: ET1 (MphR(A)-VP16) / PETR promoters; test: SEAP reporter assay, CHO lines stably expressing ET1 (CHO-ET11, CHO-ET12) transiently transfected with PETR-SEAP plasmids; format: cell-based; conditions: for SEAP Production (%) +EM: 2 μg/ml EM, −EM = 100; for SEAP activity [U/L] + EM: erythromycin 2 μg/ml
Description: Chinese hamster ovary cells (CHO-K1, ATCC: CCL 61), and HeLa cells (ATCC: CRL-7923) as well as stable cell lines derived thereof were cultured as described before (Fussenegger et al., 1998, Nat. Biotechnol. 16,468-472) in the presence of appropriate antibiotics: G418 400 μg/ml; zeocin 100 μg/ml. Optimized CaPO4 protocols were used for high efficiency transient transfection of all cell lines (Fussenegger et al., 1998. Nat. Biotechnol. 16: 468-472). Transiently transfected cells were routinely analyzed after 48 h for CFP or SEAP expression using fluorescence microscopy and p-nitrophenolphosphate-based light absorbance timecourse, respectively, as described before (Fussenegger et al., 1998, Nat. Biotechnol. 16, 468-472; Berger et al., 1988, Gene 66, 1-10 b). For construction of stable CHO-ET1 and CHO-Triplet42 cell lines, CHO-Ki and CHO-TWIN1108 (Disclosed in PCT application no. 00/65080) were cotransfected with pWW35 and pZeoSV2 (invitrogen). CHO-ET11-SEAP was constructed by cotransfection of pWW38 and pSV2neo (Clontech) into CHO-ET11. The mixed populations were cloned using FACS-mediated single-cell-sorting (FACStar^Plus; Beckton Dickinson). For assessment of dose-response characteristics of PETR3-regulated gene expression, CHO-ET11-SEAP were cultured at cell densities of 50,000/ml for 48 h at various EM concentrations.
Other antibiotics were eluted from antibiotic test discs (Mast Diagnostica GmbH, Reinfeld, Germany, or bioMérieux, Geneva Switzerland) in cell culture medium at 37° C. for 12 h to reach a final concentration of 30 μg/ml. All macrolide antibiotics were used at a 2 μg/ml concentration unless indicated otherwise.
Two representative clones, CHO-ET11 and CHO-ET12, were chosen at random among ET1-expressing CHO cell clones stably transfected with a constitutive ET1 expression construct (pWW35).
Access to alternative effective antibiotics would expand the spectrum of regulating agents available for future use in human cell and gene therapy. Accordingly, several commercially available antibiotic sources were tested for their potential to regulate the ET1/PETR3 system as shown below in Table 3.
The effect of the different spacer length in promoters PETR2 and PETR7-PETR11 were examined by transfecting the corresponding plasmids (pWW37, pBP10-pBP14) into a CHO cell line stably transfected with the transactivator ET1 (MphR(A)-VP 16, see example 1).

CHO cells = test: CHO cell morphology and growth in the presence of EM; format: cell-based, Chinese hamster; conditions: EM 2 μg/ml
[2] = test system: transrepressors MphR(A) or ET4 (MphR(A)-KRAB) / PETRON promoters; test: Erythromycin-inducible EON system, SEAP assay in transiently cotransfected CHO-K1; format: cell-based; conditions: for SEAP activity [U/L] +Erythromycin [2 μg/ml]: CHO-K1, 48 hrs, title: erythromycin (2 μg/ml)
Text: The classical ET/PETR system belongs to the “OFF” family of regulation concepts since gene expression is activated upon withdrawal of the regulating antibiotic. However, in some applications such as gene therapy and tissue engineering an “ON” system that is induced upon addition of macrolide antibiotics is more desirable. We therefore constructed a new MphR(A)-based binary EON system which consists of a PETRON promoter and a set of two different transrepressors. Two different PETRON promoters were constructed: PETRON4 consists of an ETR4 (four tandem repetitions of ETR, SEQ ID NO 26) placed downstream of the strong viral SV40 promoter. PETRON8 contains eight tandem repetitions (SEQ ID NO 27) of ETR instead of four.
Transrepressors such as ET4 (SEQ ID NO 10, example 1, FIG. 2), which consists of a protein fusion between MphR(A) and the KRAB silencing domain of the human kox-1 gene (Deuschle et al., 1995, Mol. Cell Biol. 15: 1907-1914) or MphR(A) alone, bind to ETR in front of PSV40 and block transcription of this promoter. Besides sterical transcription blocking, the silencing domain of ET4 can additionally downregulate PSV40 activity.
The ETR4 sequence (SEQ ID NO: 26) was excised from the WEBE Gene vector (custom synthesized by Operon Technologies Inc.) by SfuI and EcoRI and ligated into the corresponding sites of pMF208 (Fussenegger et al., 2000. supra) thus resulting in plasmid pWW55 (FIG. 7) containing the PSV40-ETR4-SEAP cassette. The combination of PSV40 and ETR4 is designated PETRON4. For construction of PETRON8, ETR4 was excised (PmeI/EcoRI) from pWW55 and cloned into pWW55 restricted with (EcoRV/EcoRI) thus resulting in SV40-ETR8-SEAP (pWW56).
ET4, the MphR(A)-KRAB fusion protein was constructed as described in example 1 (SEQ ID NO 10). For expression of MphR(A) pWW29 (SEQ ID NO 4) was used. The stop codon of the original MphR(A) has been mutated in order to allow fusion to the various transactivating and transrepressing domains. Because of the mutation of this stop codon the mphR(A) gene contained in pWW29 is terminated a few bp downstream at the next stop codon encountered in the vector sequence. However, the resulting MphR(A) protein preserves its role as transcriptional repressor in the EON configuration.
The regulation performance of PETRON4 (PSV40-ETR4-SEAP-pA; pWW55) and PETRON8 (PSV40-ETR8-SEAP-pA; pWW56) was assessed in CHO-K1 cells harboring the MphR(A) expression vector pWW29 (PEF1α-E-pA) (Table 7).

## CC[C@H]1OC(=O)[C@H](C)[C@@H](O[C@H]2C[C@@](C)(OC)[C@@H](O)[C@H](C)O2)[C@H](C)[C@@H](O[C@@H]2O[C@H](C)C[C@H](N(C)C)[C@H]2O)[C@](C)(O)C[C@@H](C)C(=O)[C@H](C)[C@@H](O)[C@]1(C)O [Erythromycin]
[1]; CHO-ET11 + PETR3-SEAP (pWW38)
  SEAP Production (%) +EM: 1.75 ± 0.1%
[1]; CHO-ET11 transiently transfected with pWW38, 48 h, antibiotic 2 μg/ml, no macrolide = 100
  SEAP production [%]: 1.7 ± 0.1%
[1]; CHO-ET12 + PETR3-SEAP (pWW38)
  SEAP Production (%) +EM: 4.67 ± 0.8%
[1]; both CHO-ET1 derivatives, repeated cycles of addition and withdrawal
  Reversibility of EM-responsive SEAP regulation: fully reversible
[1]; pBP10 (PETR7, 2 bp) in CHO stably transfected with ET1, 48 h
  SEAP activity [U/L] + EM: 4.2 ± 1.0 U/L
[1]; pBP12 (PETR9, 6 bp) in CHO stably transfected with ET1, 48 h
  SEAP activity [U/L] + EM: 8.4 ± 1.6 U/L
[1]; pBP13 (PETR10, 8 bp) in CHO stably transfected with ET1, 48 h
  SEAP activity [U/L] + EM: 19.7 ± 1.4 U/L
[1]; pWW37 (PETR2, 0 bp) in CHO stably transfected with ET1, 48 h
  SEAP activity [U/L] + EM: 8.3 ± 0.2 U/L
CHO cells
  Effects on CHO cell morphology and growth: No deleterious effects
[2]; PETR-ON4 + ET4
  SEAP activity [U/L] +Erythromycin [2 μg/ml]: 35.7 ± 4.7 U/L
[2]; PETR-ON4 + MphR(A)
  SEAP activity [U/L] +Erythromycin [2 μg/ml]: 175.7 ± 6.2 U/L
[2]; PETR-ON4 repressed by MphR(A)
  Induction factor (expression in induced state to expression in repressed state): ~5
[2]; PETR-ON8 + ET4
  SEAP activity [U/L] +Erythromycin [2 μg/ml]: 55.4 ± 1.8 U/L
[2]; PETR-ON8 + MphR(A)
  SEAP activity [U/L] +Erythromycin [2 μg/ml]: 81.6 ± 4.3 U/L
[2]; PETR-ON8 repressed by MphR(A)
  Induction factor (expression in induced state to expression in repressed state): ~5
